Earlier results, collected in patent US6096864A, “Peptides for use in wound treatment” (Johnson & Johnson Medical, Ltd., priority 1998, dated 2000).

Tested on: human fibroblast
Details: concentration range 2.5 mM to 25 mM

Gly-Pro-Ala
chemotactic activity: no chemotactic activity
